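Following 48 hours of exposure in 96-well plates, responses at five concentrations were used to interpolate endpoints linearly. TGI is the concentration that stops growth completely.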
Columns and labels:
Assay in all cases: growth of human tumour cells (NCI), 48 h
[1] = test system: RPMI-8226 leukemia
[2] = test system: NCI/ADR-RES ovarian
[3] = test system: NCI-H226 lung
[4] = test system: SK-MEL-28 melanoma
[5] = test system: TK-10 renal
[6] = test system: PC-3 prostate
[7] = test system: UACC-257 melanoma
[8] = test system: K-562 leukemia
[9] = test system: EKVX NSCLC
[10] = test system: MDA-N
[11] = test system: HOP-62 NSCLC
[12] = test system: T-47D breast
[13] = test system: ACHN renal
[14] = test system: OVCAR-8 ovarian
[15] = test system: HL-60(TB) leukemia
[16] = test system: SNB-19 CNS
[17] = test system: SW-620 colon
[18] = test system: SK-OV-3 ovarian
[19] = test system: A498 renal
[20] = test system: NCI-H522 lung
[21] = test system: NCI-H460 lung
[22] = test system: MCF7 breast
[23] = test system: SF-295 CNS
[24] = test system: MDA-MB-435
[25] = test system: UO-31 renal
[26] = test system: 786-0 renal
[27] = test system: A549 NSCLC
[28] = test system: SNB-75 CNS
[29] = test system: SR leukemia
[30] = test system: U251 CNS
[31] = test system: CAKI-1 renal
[32] = test system: DU-145 prostate
[33] = test system: HCT-116 colon
[34] = test system: M14 melanoma
[35] = test system: LOX IMVI melanoma
[36] = test system: MDA-MB-231 breast
[37] = test system: HS 578T breast
[38] = test system: HT29 colon
[39] = test system: HCT-15 colon
[40] = test system: OVCAR-4 ovarian
[41] = test system: KM12 colon
[42] = test system: COLO 205 colon
[43] = test system: SF-268 CNS
[44] = test system: IGROV1 ovarian
[45] = test system: OVCAR-3 ovarian
[46] = test system: SF-539 CNS
[47] = test system: SK-MEL-2 melanoma
[48] = test system: SK-MEL-5 melanoma
[49] = test system: CCRF-CEM leukemia
[50] = test system: OVCAR-5 ovarian
[51] = test system: BT-549 breast
[52] = test system: UACC-62 melanoma
[53] = test system: MOLT-4 leukemia
[54] = test system: SN12C renal
[55] = test system: NCI-H23 lung
[56] = test system: RXF 393 renal
[57] = test system: HCC-2998 colon
[58] = test system: MALME-3M melanoma
[59] = test system: HOP-92 NSCLC

## COc1ccc(S(=O)(=O)O)cc1NS(=O)(=O)c1ccc(C)cc1
[1]
  TGI: > 100 µM
[2]
  TGI: > 100 µM
[3]
  TGI: > 100 µM
[4]
  TGI: > 100 µM
[5]
  TGI: > 100 µM
[6]
  TGI: > 100 µM
[7]
  TGI: > 100 µM
[8]
  TGI: > 100 µM
[9]
  TGI: > 100 µM
[10]
  TGI: > 100 µM
[11]
  TGI: > 100 µM
[12]
  TGI: > 100 µM
[13]
  TGI: > 100 µM
[14]
  TGI: > 100 µM
[15]
  TGI: > 100 µM
[16]
  TGI: > 100 µM
[17]
  TGI: > 100 µM
[18]
  TGI: > 100 µM
[19]
  TGI: > 100 µM
[20]
  TGI: > 100 µM
[21]
  TGI: > 100 µM
[22]
  TGI: > 100 µM
[23]
  TGI: > 100 µM
[24]
  TGI: > 100 µM
[25]
  TGI: > 100 µM
[26]
  TGI: > 100 µM
[27]
  TGI: > 100 µM
[28]
  TGI: > 100 µM
[29]
  TGI: > 100 µM
[30]
  TGI: > 100 µM
[31]
  TGI: > 100 µM
[32]
  TGI: > 100 µM
[33]
  TGI: > 100 µM
[34]
  TGI: > 100 µM
[35]
  TGI: > 100 µM
[36]
  TGI: > 100 µM
[37]
  TGI: > 100 µM
[38]
  TGI: > 100 µM
[39]
  TGI: > 100 µM
[40]
  TGI: > 100 µM
[41]
  TGI: > 100 µM
[42]
  TGI: > 100 µM
[43]
  TGI: > 100 µM
[44]
  TGI: > 100 µM
[45]
  TGI: > 100 µM
[46]
  TGI: > 100 µM
[47]
  TGI: > 100 µM
[48]
  TGI: > 100 µM
[49]
  TGI: > 100 µM
[50]
  TGI: > 100 µM
[51]
  TGI: > 100 µM
[52]
  TGI: > 100 µM
[53]
  TGI: > 100 µM
[54]
  TGI: > 100 µM
[55]
  TGI: > 100 µM

## C/C=C/C=C/C1=NN(c2cccc(S(=O)(=O)O)c2)C2(C1)SCC(=O)N2c1nc2ccccc2s1 (stereo not drawn)
[1]
  TGI: > 100 µM
[2]
  TGI: > 100 µM
[3]
  TGI: > 100 µM
[4]
  TGI: > 100 µM
[5]
  TGI: > 100 µM
[6]
  TGI: > 100 µM
[7]
  TGI: > 100 µM
[8]
  TGI: > 100 µM
[9]
  TGI: > 100 µM
[10]
  TGI: > 100 µM
[12]
  TGI: > 100 µM
[13]
  TGI: > 100 µM
[14]
  TGI: > 100 µM
[15]
  TGI: > 100 µM
[16]
  TGI: > 100 µM
[17]
  TGI: > 100 µM
[56]
  TGI: > 100 µM
[57]
  TGI: > 100 µM
[19]
  TGI: > 100 µM
[20]
  TGI: > 100 µM
[21]
  TGI: > 100 µM
[22]
  TGI: > 100 µM
[24]
  TGI: > 100 µM
[25]
  TGI: > 100 µM
[26]
  TGI: 42.3 µM
[27]
  TGI: > 100 µM
[28]
  TGI: > 100 µM
[58]
  TGI: > 100 µM
[29]
  TGI: 87.6 µM
[30]
  TGI: > 100 µM
[31]
  TGI: > 100 µM
[32]
  TGI: > 100 µM
[33]
  TGI: > 100 µM
[34]
  TGI: > 100 µM
[35]
  TGI: 51.8 µM
[36]
  TGI: > 100 µM
[37]
  TGI: > 100 µM
[38]
  TGI: > 100 µM
[39]
  TGI: > 100 µM
[40]
  TGI: > 100 µM
[41]
  TGI: > 100 µM
[42]
  TGI: > 100 µM
[43]
  TGI: > 100 µM
[44]
  TGI: > 100 µM
[46]
  TGI: > 100 µM
[47]
  TGI: > 100 µM
[48]
  TGI: > 100 µM
[49]
  TGI: 77.7 µM
[50]
  TGI: > 100 µM
[59]
  TGI: > 100 µM
[51]
  TGI: > 100 µM
[52]
  TGI: > 100 µM
[53]
  TGI: > 100 µM
[54]
  TGI: > 100 µM
[55]
  TGI: > 100 µM

## O=C([C@H](O)[C@@H](O)c1ccc(Br)cc1)C12CC3CC(CC(C3)C1)C2
[1]
  TGI: > 100 µM
[2]
  TGI: > 57.1 µM
[3]
  TGI: > 85.7 µM
[4]
  TGI: > 68.6 µM
[5]
  TGI: > 47.8 µM
[6]
  TGI: 24.5 µM
[7]
  TGI: > 43.3 µM
[8]
  TGI: > 100 µM
[9]
  TGI: > 76.9 µM
[10]
  TGI: > 100 µM
[11]
  TGI: 26.6 µM
[12]
  TGI: > 29.3 µM
[13]
  TGI: > 54.1 µM
[14]
  TGI: > 100 µM
[15]
  TGI: > 26.5 µM
[16]
  TGI: > 90.4 µM
[17]
  TGI: > 38.4 µM
[56]
  TGI: > 100 µM
[57]
  TGI: > 38.9 µM
[18]
  TGI: > 75.2 µM
[19]
  TGI: 32.5 µM
[20]
  TGI: > 57.7 µM
[21]
  TGI: 16.1 µM
[22]
  TGI: > 39.7 µM
[23]
  TGI: 47.1 µM
[24]
  TGI: > 56.4 µM
[25]
  TGI: > 55.2 µM
[26]
  TGI: 45.9 µM
[27]
  TGI: 97 µM
[28]
  TGI: 8.2 µM
[58]
  TGI: 51.4 µM
[29]
  TGI: > 100 µM
[30]
  TGI: > 36.4 µM
[31]
  TGI: 59.2 µM
[32]
  TGI: 51.8 µM
[33]
  TGI: > 51.9 µM
[34]
  TGI: 37.5 µM
[35]
  TGI: > 100 µM
[36]
  TGI: > 43 µM
[37]
  TGI: > 85.9 µM
[38]
  TGI: > 61.9 µM
[39]
  TGI: > 75 µM
[40]
  TGI: > 100 µM
[41]
  TGI: > 74.9 µM
[42]
  TGI: > 40.2 µM
[43]
  TGI: > 70.6 µM
[44]
  TGI: 12.9 µM
[45]
  TGI: 32.4 µM
[46]
  TGI: > 28.7 µM
[47]
  TGI: > 31.6 µM
[48]
  TGI: > 56.2 µM
[49]
  TGI: > 30.8 µM
[50]
  TGI: > 72.9 µM
[51]
  TGI: 24 µM
[52]
  TGI: 25.8 µM
[53]
  TGI: > 100 µM
[54]
  TGI: > 65.8 µM
[55]
  TGI: > 37.9 µM
